The test system of data set [1] is rats grown with low calcium feed (bone resorption). As to the kind of experiment: Bone resorption inhibitory activity by decrease of plasma calcium concentration in rats grown with low calcium feed. As to conditions: Wistar rats on low calcium feed, 6 hours after administration, vs non-administration group. Type of data set: in vivo, rat. How it is done: (1) If rats are grown with low calcium feed, its bone weight decreases. This is because calcium is left from bone by dissolution in blood (i.e., bone resorption) so as to maintain the calcium concentration in blood at a normal level. Therefore, compounds inhibiting bone resorption in the model adopted in this experiment inhibit dissolution of calcium in blood from bone to reduce the plasma calcium concentration. Thus, compounds of the invention were evaluated in their bone resorption inhibitory activity by measuring decrease of plasma calcium concentration in the following experiment (according to J. M. Delaisse et al., Biochem. Biophys. Res. Commun., 125, 441 (1984)
Rats of Wistar strain (age: 5 to 6 weeks) were grown with a low calcium content feed (Ca: 0.02S, available from Oriental Yeast Industries, Co., Ltd.) for one week to give bone resorption-enhanced condition A test compound was dissolved in aqueous 1 nethylcellulose solution (when the test compound was-hydrophobic, Tween 20, nonionic-surfactant, was added), and administered orally to the rat in a dosage of 0.2 mL/100 g (weight of rat) At 6 hours after the administration, blood was taken from tail vein of the rat Then, the plasma calcium concentration was measured by OCPC method,
The plasma calcium concentration decreasing activity (Ca decrease rate) of the test compound was calculated by the following equation:
Ca decrease rate (%)=100×(plasma calcium concentration at 6 hours after administration of test compound)−(plasma calcium concentration at the same time in non-administration group)/(plasma calcium concentration at the same time in non-administration group)

Data set [2] concerns the target T1, Cathepsin L (Rattus norvegicus, UniProt P07154).
T1 construct: Thus, a lysosome fraction was obtained; from tissue; host or cells: liver of male Wistar rat, crude lysosome fraction
As to the kind of experiment: Cathepsin L inhibitory action (rat liver lysosome fraction, Z-Phe-Arg-MCA, in presence of CA-074). It counts as biochemical. The following applies: pH 5.5, 30° C., with 10^-7 M CA-074, read-out: Cathepsin Inhibition (IC50) Cathepsin L. Here is the method:
(§1) Male rat of Wistar strain was killed by exsanguination and a ice-chilled physiological saline was introduced into portal vein for circulation Then, its liver was taken out. Thereafter, the following procedures were performed at 4°C.
(§2) The liver was minced by scissors. Five grams of minced liver were homogenized in a Potter type Teflon Homogenizer after addition of 9 volumes of 0.25 M sucrose. The homogenate was centrifuged at 800 G for 10 minutes. The resulting supernatant was further centrifuged at 12,000 G for 20 minutes. The precipitate was homogenized in 25 mL of 0.25 M sucrose, and then centrifuged at 12,000 G for 20 minutes. The resulting precipitate was further homogenized in 10 mL of 0.25 M sucrose. Thus, a lysosome fraction was obtained,
(§3) The lysosome fraction was diluted with 0.25M sucrose containing 0.336 of Triton X-100 for the use in the measurement of cathepsin L activity.
To 0.25 mL of a solution (pH: 5.5) containing 340 mM sodium acetate, 60 mM acetic acid, 4 mM EDTA and 8 mM dithiothreitol were added 0.1mL of the lysosome fraction, 5 μL of the test compound solution, and 0.545 mL of distilled water. The mixture was pre-incubated at 30° C. for 15 minutes. Thereafter, 0.1 mL of 50 μM by carbobenzoxy-L-phenylalanyl-L-arginine-4-methylcoumaryl-7-amide (Z-Phe-Arg-MCA) solution was added, and the reaction was started. The reaction was performed at 30° C. for 20 minutes, and then terminated by addition of 1mL of an aqueous solution (pH. 4.3) containing 100 mM sodium mono-chloroacetate, […] and 70 mM acetic acid The finally obtained solution was subjected to measurement of fluorescence strength (excitation wave-length: 380 nm, emission wavelength: 460 nm.
The Z-Phe-Arg-MCA is also decomposed by cathepsin B which is contained in the lysosome fraction.

Data set [3] deals with T2, Cathepsin B (Rattus norvegicus, UniProt P00787).
T2 construct: from tissue; host or cells: liver of male Wistar rat, crude lysosome fraction
T2 sequence (P00787 80-333): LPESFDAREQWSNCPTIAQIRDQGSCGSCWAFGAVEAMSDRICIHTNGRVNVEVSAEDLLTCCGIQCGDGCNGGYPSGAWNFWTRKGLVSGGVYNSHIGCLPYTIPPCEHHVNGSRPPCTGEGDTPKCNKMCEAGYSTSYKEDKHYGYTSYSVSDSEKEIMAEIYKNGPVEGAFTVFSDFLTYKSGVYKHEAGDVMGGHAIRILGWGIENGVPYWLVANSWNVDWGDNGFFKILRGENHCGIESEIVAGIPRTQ
The data set is described as follows: Cathepsin B inhibitory action (lysosome fraction, Z-Arg-Arg-MCA). It counts as biochemical. As to conditions: pH 6.0, 30° C., read-out: Cathepsin Inhibition (IC50) Cathepsin B. Here is the method: as §1, §2, §3
To 0.25 mL of a solution (pH: 6.0) containing 352 mM KH2PO4, 48 mM Na2HPO4, 5.32 mM EDTA·2Na and 10 mM L-cysteine were added 0.1 mL of the lysosome fraction, 5 μL of the test compound solution, and 0.545 mL of distilled water. The mixture was pre-incubated at 30° C. for 15 minutes. Thereafter, the reaction was started by the addition of 0.1 mL of a solution of 50 μM carbobenzoxy-L-arginine-L-arginine-4-methylcoumaryl-7-amide (Z-Arg-Arg-MCA, substrate). The reaction was performed at 30° C. for 20 minutes, and then terminated by addition of 1 mL of an aqueous solution (pH: 4.3) containing 100 mM sodium mono-chloroacetate, 30 mM sodium acetate and 70 mM acetic acid. The finally obtained solution was subjected to measurement of fluorescence strength (excitation wavelength: 380 nm, emission wavelength: 460 nm).

In data set [4] the test system is ovariectomized rats. As to the kind of experiment: Action on ovariectomized rats (postmenopausal osteoporosis model), bone density by p-QCT. It counts as in vivo, rat. The following applies: ovariectomized SD female rats, 300 mg/kg once a day for 4 weeks; average ± SD; control 543.7 ± 31.4, false operation 658.8 ± 46.3; P < 0.01 vs control. Here is the method:
The ovariectomized rats were employed as models of postmenopausal osteoporosis, for evaluating the compound of the invention. (2) Experimental Procedures
The ovaries on both sides were removed surgically in SD female rats (age; 13 weeks). From the next day, a test compound (compound of Example 5) was administered at 300 mg/kg to the rats once a day for 4 weeks (administration group: 8 rats). After the last administration was complete, the fourth vertebrae lumbale was taken out, and the total bone density was measured by means of p-QCT (Peripheral Bone Density-Measuring Apparatus) and compared with the bone density of the control group (7 rats). In addition, rats treated by false-operation were also subjected to the same measurement, […]

Data set [5] has as its system Rat adjuvant arthritis. The data set is described as follows: Action on rat adjuvant arthritis (hind paw volume). It counts as in vivo. The following applies: Wistar rats, 300 mg/kg orally once a day for 21 days, untreated hind paw, significant vs control, risk <1%. How it is done: Rat adjuvant arthritis which is considered as a model of rheumatoid arthritis of human being was employed for evaluation of the compound of the invention.
Male rats of Wistar strain (age: 5 weeks) were sensitized by subcutaneous injection of Mycobacterium Butyricum which was suspended in liquid paraffin into the right hind paw. From the next day, a test compound (the compound of the aforementioned Example 5) was orally administered at a dosage of 300 mg/kg once a day for 21 days (administration group: 8 rats). After the last administration was complete, a volume of the untreated hind paw was measured by means of Volume Differential Meter and compared with that of Control group (8 rats, non-administration group) In addition, a non-adjuvant treatment group (normal group: 8 rats) was subjected to the same measurement. Inhibition of expansion of the hind paw by the test compound (Inhibition rate) was calculated by the following equation:
Inhibition rate (%)=100×(administration group−control group)/(normal group−control group)

Setting [6] is: Rattus norvegicus, po, 15 mg/kg p.o., read-out: Measured Plasma Ca Concentration (Ca decrease rate).

The term IC50 denotes the concentration needed to halve the response being measured. The melting point is the temperature, or range, at which the solid turns liquid.

T1 sequence (P07154 114-334): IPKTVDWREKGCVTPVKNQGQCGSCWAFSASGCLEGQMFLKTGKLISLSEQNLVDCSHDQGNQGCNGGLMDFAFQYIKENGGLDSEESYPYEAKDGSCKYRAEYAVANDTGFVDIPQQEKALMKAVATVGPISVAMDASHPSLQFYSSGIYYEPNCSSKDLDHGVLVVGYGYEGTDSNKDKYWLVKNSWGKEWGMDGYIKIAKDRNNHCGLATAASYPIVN

As for `CCOC(=O)[C@H]1O[C@@H]1C(=O)N[C@@H](CC(C)C)[C@H](O)c1ccccc1` [Example 1a, Ethyl (2S,3S)-3-[[1-(S)-[α-(R)-hydroxybenzyl]-3-methyl-butyl]carbamoyl]oxirane-2-carboxylate], in data set [1] (setting [6]), the change in vivo at 15 mg/kg was -12.5%.
For `CC(C)C[C@H](NC(=O)[C@H]1O[C@@H]1C(=O)O)[C@H](O)c1ccccc1` [Example 2, (2S,3S)-3-[[1-(S)-[α-(R)-hydroxybenzyl]-3-methylbutyl]-carbamoyl]oxirane-2-carboxylic acid], the values for the IC50 in data set [2] and in data set [3] were 11 nM and 120 nM, respectively.
`CCOC(=O)[C@H]1O[C@@H]1C(=O)N[C@@H](CC(C)C)[C@H](OC)c1ccccc1` [Example 5, Ethyl (2S,3S)-3-[[1-(S)-[α-(R)-methoxybenzyl]-3-methyl-butyl]carbamoyl]oxirane-2-carboxylate] returned a melting point of 108 to 109 °C. The “Total bone density of the fourth vertebrae lumbale” value in data set [4] turned out to be 617.8 ± 37.9 mg/mL. The “Inhibition of expansion of the hind paw (Inhibition rate)” value in data set [5] is 42%. Besides, in data set [1] (setting [6]), the change in vivo at 15 mg/kg was -20.4%.
Turning to `CCOC(=O)[C@H]1O[C@@H]1C(=O)N[C@@H](CC(C)C)C(=O)c1ccccc1` [Example 7, Ethyl (2S,3S)-3-[[1-(S)-benzoyl-3-methylbutyl]carbamoyl]-oxirane-2-carboxylate], the change in vivo at 15 mg/kg in data set [1] (setting [6]) was -13.6%.
On the same count and under the same terms, then `CCOC(=O)[C@H]1O[C@@H]1C(=O)N[C@H](C(=O)c1ccccc1)C(C)C` [Example 8, Ethyl (2S,3S)-3-[[1-(S)-benzoyl-2-methylpropyl]-carbamoyl]oxirane-2-carboxylate], with -15.8%.
Regarding `CCC(C)[C@H](NC(=O)[C@H]1O[C@@H]1C(=O)O)[C@H](O)c1ccccc1` (stereo partly drawn) [Example 9, (2S,3S)-3-[[1-(S)-[α-(R)-hydroxybenzyl]-2-methylbutyl]carbamoyl]oxirane-2-carboxylic acid], the values for the IC50 in data set [2] and in data set [3] were 57 nM and 210 nM, respectively.
With `CO[C@H](c1ccccc1)[C@H](CC(C)C)NC(=O)[C@H]1O[C@@H]1C(=O)O` [Example 11, (2S,3S)-3-[[1-(S)-[α-(R)-methoxybenzyl]-3-methylbutyl]-carbamoyl]oxirane-2-carboxylic Acid], the 50% inhibitory concentration (IC50) in data set [2] stood at 18 nM; in data set [3], 85 nM. Moreover, the change in vivo at 15 mg/kg in data set [1] (setting [6]) is -17.3%.
For `CC(C)C[C@@H](CO)NC(=O)[C@H]1O[C@@H]1C(=O)O` [Example 12, (2S,3S)-3-[[1-(S)-hydroxymethyl-3-methylbutyl]carbamoyl]-oxirane-2-carboxylic Acid], the IC50 in data set [2] worked out at 94 nM; in data set [3], 100 nM.
Turning to `CCOC(=O)[C@H]1O[C@@H]1C(=O)N[C@@H](CC(C)C)[C@H](OC(C)=O)c1ccccc1` [Example 13, Ethyl (2S,3S)-3-[[1(S)-[α-(R)-acetoxybenzyl]-3-methyl-butyl]carbamoyl]oxirane-2-carboxylate], the change in vivo at 15 mg/kg in data set [1] (setting [6]) was -14.7%.
`CO[C@H](c1ccccc1)[C@H](CC(C)C)NC(=O)[C@H]1O[C@@H]1C(=O)OC(C)C` [Example 14, Isopropyl (2S,3S)-3-[[1-(S)-[α-(R)-methoxybenzyl]-3-methylbutyl]carbamoyl]oxirane-2-carboxylate]: the change in vivo at 5 mg/kg in data set [1] (Rattus norvegicus, po, 5 mg/kg p.o., read-out: Measured Plasma Ca Concentration (Ca decrease rate)) was -9.9%.
On to `CCOC(=O)[C@H]1O[C@@H]1C(=O)N[C@H](COCc1ccccc1)CC(C)C` [Example 17, Ethyl (2S,3S)-3-[[1-(S)-benzyloxymethyl-3-methylbutyl]-carbamoyl]oxirane-2-carboxylate], for which the change in vivo at 15 mg/kg in data set [1] (setting [6]) was -15.4%.
For `CCOC(=O)[C@H]1O[C@@H]1C(=O)N[C@H](COCC(C)C)CC(C)C` [Example 18a, Ethyl (2S,3S)-3-[[1-(S)-isobutoxyrethyl-3-methylbutyl]-carbamoyl]oxirane-2-carboxylate], in data set [1] (15 mg/kg p.o.), the “Measured Plasma Ca Concentration (Ca decrease rate)” value is given as −24.5%.
Take `CC(C)C[C@H](NC(=O)[C@H]1O[C@@H]1C(=O)O)[C@H](OCc1ccccc1)c1ccccc1` [Example 22, (2S,3S)-3-[[1-(S)-[α-(R)-(benzyloxy)benzyl]-3-methyl-butyl]carbamoyl]oxirane-2-carboxylic Acid]: the results for the IC50 in data set [2] and in data set [3] were 3.3 nM and 41 nM, respectively.
Consider `O=C(O)[C@H]1O[C@@H]1C(=O)N[C@H](COCc1ccccc1)Cc1ccccc1` [Example 23], for which the IC50 in data set [2] was determined as 11 nM.
Regarding `CC(C)C[C@@H](COCc1ccccc1)NC(=O)[C@H]1O[C@@H]1C(=O)O` [Example 24, Sodium (2S,3S)-3-[[1-(S)-benzyloxymethyl-3-methylbutyl]-carbamoyl]oxirane-2-carboxylate], the IC50 in data set [2] amounted to 6.9 nM; in data set [3], 28 nM.

These data come from patent publication US20020091131A1, “Epoxysuccinamide derivatives” (priority 1997, published 2002).
